Results from US20060270640A1, “Method of preventing, medicating, and/or treating hypocalcemia of domestic mammal” (Mercian Corporation, priority 2004, published 2006).
Several values for one entry are separate records, joined by “and”; a condition that tells them apart may be missing. Equal entries are not always repeated.

Key:
[1] = Intravaginal 1,25-(OH)2D3 in raised cows: mineral (Ca, iP, Mg) concentrations in plasma (Example 2); assay type: in vivo, cow
Procedure: (§1) Hereinafter, the present invention will further be described with reference to Examples and Comparative Example. However, the present invention is not intended to be limited to them by any means. In the examples described below, a 1,25-(OH)2D3 concentration in plasma was determined using a radioimmunoassay kit (1,25-(OH)2D RIA kit, Immunodiagnostic Systems Limited, UK). The Ca concentrations, inorganic phosphorus (iP) concentrations, and magnesium (Mg) concentrations in plasma and urine were determined by orthocresolphthalein complexone (O-CPC), molybdenum (Mo), and xylidyl blue methods, respectively. A creatinine concentration in urine was determined by a Jaffe method. Calcium (Ca), inorganic phosphorus (iP), and magnesium (Mg) concentrations in urine were indicated in the ratios relative to creatinine (Cre) (Ca/Cre, iP/Cre, and Mg/Cre, respectively).
(§2) For confirming the absorption in the vagina of 1,25-(OH)2D3 administered to the vaginal cavities of cows, biochemical changes of 1,25-(OH)2D3 and minerals in blood were observed after the intravaginal administration of 1,25-(OH)2D3 to cows.
(§3) Six Holstein cows (3 to 6 months olds, 97 to 118 kg in body weights) that were clinically healthy were raised and domesticated for at least 1 week in the same fence by providing them with feed (1.56 kg of grass, 0.55 kg of formula feed, and 1.44 kg of alfalfahey cube in dried forms) having a daily mineral intake of 21 g of Ca, 13 g of P, and 4 g of Mg that satisfies requirements stipulated by NRC (National Research Council) on a daily basis and free water drinking.
(§4) To each of five of the cows, 1,25-(OH)2D3 (crystal manufactured by Mercian Corporation dissolved in 99% ethanol to bring its concentration to 1 mg/mL and cryopreserved at −20° C. until just before use) was intravaginally administered at 1 μg per kg of body weight.
Intravaginal administration was performed using a 14-gauge, 64 mm-long cannula with an indwelling needle for injection (Surflo, Terumo Co. Ltd., Tokyo) and a plastic pump (Top Plastic Syringe, Top Surgical Taiwan Corporation, Taiwan).
To the other cow, 3.0 mL of 99% ethanol was administered as a control.
A heparinized blood sample was collected from a jugular vein immediately before administration (0 hour) and at 2, 6, 12, 24, 48, 72, and 96 hours after administration.
The biochemical value of blood was indicated as a means±standard deviation. For observing the effect of the intravaginal administration of 1,25-(OH)2D3, repeated measures analysis of variance was used. When the effect was significant, a statistical test was conducted by the Dunnett's multiple comparison between the value at 0 hour and each value after administration. The significant difference was set to P<0.05.

[2] = Intravaginal 1,25-(OH)2D3 in raised cows: 1,25-(OH)2D3 concentration in plasma, RIA (Example 2); assay type: in vivo, cow
Procedure: as §1, §2, §3, §4
Intravaginal administration was performed using a 14-gauge, 64 mm-long cannula with an indwelling needle for injection (Surflo, Terumo Co. Ltd., Tokyo) and a plastic pump (Top Plastic Syringe, Top Surgical Taiwan Corporation, Taiwan). […]

[3] = oral administration, high dose; cited from earlier work
[4] = Dose-response test of 1,25-(OH)2D3: Ca/Cre, iP/Cre, Mg/Cre in urine (Example 3); assay type: in vivo, cow; conditions: for iP/Cre in urine: vs immediately before administration
Procedure: as §1
The dose-response test of 1,25-(OH)2D3 by an intravaginal administration route was performed with five 3 to 9-year-old ovariectomized Holstein cows having body weights of 616 to 804 kg as test animals.
The cows were hitched to a partition after and provided with 5.3 kg of timothy hay, 0.18 kg of alfalfa hay, 0.71 kg of beet pulp pellet, and 1.7 kg of commercially-available grain mix on a daily basis. The cows were measured on a DM basis and freely provided with water. A daily mineral intake was set to 48.4 g for calcium, 20.2 g of inorganic phosphorus, and 12.7 g for magnesium, which sufficiently exceeded the NRC recommendation.
To the five cows, 1,25-(OH)2D3 was respectively administered at 0.125, 0.25, 0.5, and 1.0 μg/kg (by body weight) as an intravaginal dose level and 1.0 μg/kg (by body weight) as an intravenous injection dose level at an interval of 2 weeks or more according to a 5×5 Latin square design.
The 1,25-(OH)2D3 (manufactured by Mercian Corporation) used was in the form of crystalline powder, which was dissolved in 99% ethanol at 200 μg/mL and cryopreserved at −20° C. until use.
A drug composed of 5 mL of 20% ethanol solution containing 1,25-(OH)2D3 at 0.125, 0.25, 0.5, or 1.0 μg/kg (by body weight) was administered to a vaginal lumen using a Split Universal Sheath (IMV Int. CO., France) by a rectovaginal cavity method. The vulva was then bonded with an adhesive in order to prevent the 1,25-(OH)2D3 solution from being unintentionally excreted from the vaginal lumen. Intravenous administration was performed using a cannula (14-ga cannula for animals, manufactured by Nipro Medical Industries Ltd.) mounted in advance for the collection of a blood sample.
Urine were collected by urethral catheterization simultaneously with the collection of blood samples from the cows that underwent the intravaginal administration of 1,25-(OH)2D3 at 0.125 and 1.0 μg/kg (by body weight) and the intravenous injection of 1,25-(OH)2D3at 1.0 μg/kg (by body weight), to determine creatinine, calcium, inorganic phosphorus, and magnesium concentrations in the urine. Plasma and urine samples were cryopreserved at −20° C. until analysis.

[5] = in vivo; cited from earlier work
[6] = 0 hour, intravaginal 1 μg/kg, n=5

For C=C1/C(=C\C=C2/CCC[C@]3(C)[C@@H]([C@H](C)CCCC(C)(C)O)CC[C@@H]23)C[C@@H](O)C[C@@H]1O [1,25-(OH)2D3, 1,25-dihydroxyvitamin D3], the Mg in plasma [1, 6] was 2.1 ± 0.1 mg/dL, the iP in plasma [1, 6] was 7.3 ± 0.5 mg/dL and the iP in plasma ([1]; 6 hours after intravaginal 1 μg/kg, P<0.05 vs 0 hour) was 8.1 ± 0.8 mg/dL. For the same compound, the iP in plasma ([1]; 24 hours (start of 24 to 96 hours) after intravaginal 1 μg/kg, P<0.01) was 9.1 ± 0.7 mg/dL, the Mg in plasma ([1]; 24 hours after intravaginal 1 μg/kg, P<0.01 vs 0 hour) was 1.8 ± 0.1 mg/dL and the “Ca concentration in plasma, maximum value” ([1]; 24 hours after intravaginal 1 μg/kg, n=5, significantly (P<0.01) high at 12 to 72 hours) was 11.96 ± 0.7 mg/dL. The Mg in plasma ([1]; 48 hours after intravaginal 1 μg/kg, P<0.01 vs 0 hour) was 1.8 ± 0.1 mg/dL, the iP in plasma ([1]; 96 hours (end of 24 to 96 hours) after intravaginal 1 μg/kg, P<0.01) was 8.6 ± 0.6 mg/dL and the “Ca concentration in plasma” value ([1]; before administration, intravaginal 1 μg/kg, n=5) was 10.4 ± 0.4 mg/dL. The concentration at 6 h ([2]; female, Holstein, bovine, plasma, other: intravaginal, 6 hours after intravaginal 1 μg/kg, n=5, p<0.01 vs 0 hour) was 1.97 ± 1.14 ng/mL, the concentration at 0 h ([2]; female, Holstein, bovine, plasma, other: intravaginal, before administration (0 hour), intravaginal 1 μg/kg, n=5 raised cows, mean±SD) was 0.0883 ± 0.0203 ng/mL and the “absorption from the vaginal wall of a cow” value ([2]; intravaginal 1 μg/kg, sudden rise in plasma at 2 hours) was “confirmed”. The “proportional rise in the AUC in serum with an increase in a dose” value [3] was “not observed”, the “Ca/Cre, iP/Cre and Mg/Cre in urine” value ([4]; intravaginal 0.125 μg/kg) was “no influence” and the Ca/Cre in urine ([4]; via the vagina 1.0 μg/kg, at 24 hours after administration) was “significantly rose”. The Mg/Cre in urine ([4]; via the vagina 1.0 μg/kg, from 6 hours to 12 hours after administration) was “significantly high”, the iP/Cre in urine ([4]; via the vagina 1.0 μg/kg, from 48 hours to 120 hours) was “significantly high” and the Mg/Cre in urine ([4]; via the vein 1.0 μg/kg, at 6 hours after administration) was “significantly high”. The Ca/Cre in urine ([4]; via the vein 1.0 μg/kg, at 12 hours and 24 hours after administration) was “significantly rose”, the iP/Cre in urine ([4]; via the vein 1.0 μg/kg, from 72 hours to 120 hours) was “significantly high” and the “bioavailability of 1,25-(OH)2D3” value [5] was 62% and 67%.
